Measured values from the NIST ThermoML archive (doi:10.1021/je060200b).

Test: molar heat capacity at constant pressure; xn = mol fraction of the nth substance listed
Settings: 101 kPa, Liquid

BrCCCCCBr [1,5-dibromopentane] + CCCCCCC
molar heat capacity at constant pressure [J/K/mol]
Settings	x1 = 0.1006	x1 = 0.1994	x1 = 0.3003	x1 = 0.4008	x1 = 0.5004	x1 = 0.5999	x1 = 0.6995	x1 = 0.8002	x1 = 0.899	x1 = 1
293.15 K	221.62	221.15	221	220.91	220.8	220.5	220.19	219.87	219.89	219.76
294.15 K	221.93	221.54	221.39	221.29	221.14	220.66	220.44	220.16	220.02	219.98
295.15 K	222.35	221.76	221.59	221.6	221.41	220.91	220.59	220.44	220.3	220.19
296.15 K	222.62	222.09	221.89	221.77	221.59	221.3	220.81	220.57	220.61	220.41
297.15 K	223.06	222.53	222.34	222.15	221.87	221.5	221.19	220.89	220.76	220.66
298.15 K	223.39	222.84	222.66	222.48	222.23	221.68	221.42	221.11	221.09	220.84
299.15 K	223.7	223.2	222.87	222.74	222.55	221.91	221.69	221.39	221.32	221.1
300.15 K	224.16	223.42	223.3	222.91	222.69	222.3	221.83	221.48	221.55	221.28
301.15 K	224.39	223.89	223.58	223.33	223.05	222.57	222.17	221.85	221.77	221.49
302.15 K	224.88	224.24	223.78	223.52	223.39	222.87	222.33	222.09	221.93	221.73
303.15 K	225.21	224.57	224.21	223.81	223.49	–	–	–	–	–
